Measured values as given in patent US6284768A, “Src family SH2 domain inhibitors” (Boehringer Ingelheim Pharmaceuticals, Inc., priority 1999, dated 2001).

Target: T1, p56lck GST-SH2 (lck SH2 domain) (Homo sapiens, UniProt P06239)
T1 construct: GST (N)
Experiment: Receptor-ligand equilibrium binding constants by surface plasmon resonance (biosensor), lck SH2 domain
Conditions: Table 1, compounds of formula (II)
Method: The general methods for the determination of Receptor-Ligand Kinetic and Equilibrium Binding Constants using Surface Plasmon Resonance as applied to the lck SH2 Domain have been described in: M. M. Morelock, R. H. Ingraham, R. Betageri.
General Biosensor Methods.
The mobile phase buffer, 10 mM HEPES, pH 7.4, 150 mM NaCl, and 0.05% P-20, was maintained at a flow rate of 5 μL/min in all experiments. All buffers and protein solutions were filtered through a 0.2 um filter and degassed immediately before use.
Strepavidin was diluted to 0.25 mg/ml in 20 mM NaOAc buffer, pH 4.5 and immobilized by free amine coupling to approximately 3000 RU for all 4 flow cells from a single sensor chip .
Surface Kd Determinations.
The surface was regenerated by 4μL of 20 mM HCl followed by 4 μL of 150 mM Tris base. The values used in the analysis were the equilibrium plateau values from which the sample refractive index has been subtracted. For the data analyzed for linear function the equilibrium plateau values without the sample refractive index subtracted were used. Free solution Kd determinations. In a 96 well microtiter plate 20 nM SH2 domain suspended in running buffer containing 0.2 mg/ml BSA and 1 mM DT'T was distributed in 100 μL per well. The highest concentration of compound tested was added to the last well and titrated with 2 fold dilutions for a final of 10 concentrations to be run. 25 μL of the mixture was injected over a strepavidin-biotin-ε-aminohexanoic acid-EGQpYEEIPIA surface and regenerated with 4 μL of 20 mM HCl. […], of 150 mM Tris base was injected after every 11 samples. Typically 8 assays were run in an overnight programmed run.

T1 sequence (P06239 127-224 limits assumed): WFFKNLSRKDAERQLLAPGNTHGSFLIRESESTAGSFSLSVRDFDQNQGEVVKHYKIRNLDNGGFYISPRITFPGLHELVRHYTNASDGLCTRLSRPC

Row | Kd | SMILES
1 | 2400 nM | COc1ccc(Cn2ccc(C)c(NC(=O)[C@H](Cc3ccc(NC(=O)C(=O)O)cc3)NC(=O)Cc3ccccc3[N+](=O)[O-])c2=O)cc1 [Compound 34]
2 | 1200 nM | COc1ccc(Cn2ccc(C)c(NC(=O)[C@H](Cc3ccc(CC(=O)O)cc3)NC(=O)COc3cccc4c(N(C)C)cccc34)c2=O)cc1 [Compound 167]
3 | 1900 nM | COC1CCC(Cn2ccc(C)c(NC(=O)C(Cc3ccc(C(C)(C)C(=O)O)cc3)NC(=O)Cc3ccc4ccccc4c3)c2=O)CC1 (stereo not drawn) [Compound 147]
4 | 460000 nM | COc1ccc(Cn2ccc(C)c(NC(=O)C(Cc3ccc(C(C)(C)C(=O)O)cc3)N(C)C(=O)C(C)(C)c3ccc4ccccc4c3)c2=O)cc1 (stereo not drawn) [Compound 161]
5 | 1500 nM | COc1ccc(Cn2ccc(C)c(NC(=O)[C@H](Cc3ccc(CS(=O)(=O)O)cc3)NC(=O)Cc3cccc4ccccc34)c2=O)cc1 [Compound 42, 3-[2'-(S)-(1'"-Naphthylacetyl)amino-3'-(4"-sulfonylmethyl)benzene]propanoylamino-1-(4-methoxybenzyl)-4-methyl-2-pyridone]
6 | 5800 nM | COc1ccc(Cn2ccc(C)c(NC(=O)C(Cc3ccc(C(C)(C)C(=O)O)cc3)NC(=O)Cc3ccc4ccccc4c3)c2=O)cc1O (stereo not drawn) [Compound 160]
7 | 1800 nM | COc1ccc(Cn2ccc(C)c(NC(=O)C(Cc3ccc(C(C)(C)C(=O)O)cc3)NC(=O)C(F)(F)F)c2=O)cc1 (stereo not drawn) [Compound 176]
8 | 5100 nM | COc1ccc(Cn2ccc(C)c(NC(=O)[C@H](Cc3ccc(C(C)C(=O)O)cc3)NC(=O)Cc3cccc4ccccc34)c2=O)cc1 (stereo partly drawn) [Compound 3]
9 | 1500 nM | COc1ccc(Cn2ccc(C)c(NC(=O)[C@H](Cc3ccc(CC(=O)O)cc3)NC(=O)Cc3ccc4ccccc4c3)c2=O)cc1 [Compound 59, 3-[2'-(S)-(2'"-Naphthylacetyl)amino-3'-(4"-carboxymethyl)benzene]propanoylamino-1-(4-methoxybenzyl)-4-methyl-2-pyridone]
10 | 720 nM | CCCCCCn1cc(Br)c(C)c(NC(=O)C(Cc2ccc(C(C)(C)C(=O)O)cc2)NC(=O)Cc2ccc3ccccc3c2)c1=O (stereo not drawn) [Compound 238]
11 | 80 nM | COc1ccc(Cn2cc(Br)c(C)c(NC(=O)[C@H](Cc3ccc(C(C)(C)C(=O)O)cc3)NC(=O)Cc3ccc(C(F)(F)F)cc3)c2=O)cc1 [Compound 228]
12 | > 11000 nM | COc1ccc(Cn2ccc(C)c(NC(=O)[C@H](Cc3ccc(NC(=O)C(=O)O)cc3)NC(=O)Nc3nc4ccccc4s3)c2=O)cc1 [Compound 7]
13 | 1200 nM | Cc1ccn(C/C=C/c2ccccc2)c(=O)c1NC(=O)C(Cc1ccc(C(C)(C)C(=O)O)cc1)NC(=O)Cc1ccc2ccccc2c1 (racemic) [Compound 115]
14 | 820 nM | COc1ccc(Cn2ccc(C)c(NC(=O)[C@H](Cc3ccc(NC(=O)C(=O)O)cc3)NC(=O)Cc3cccc([N+](=O)[O-])c3)c2=O)cc1 [Compound 105]
15 | 4100 nM | CCCCCn1ccc(C)c(NC(=O)C(Cc2ccc(C(C)(C)C(=O)O)cc2)NC(=O)C(C)(C)c2ccc3ccccc3c2)c1=O (stereo not drawn) [Compound 193]
16 | 430 nM | COc1ccc(Cn2ccc(C)c(NC(=O)[C@H](Cc3ccc(C(C)(C)C(=O)O)cc3)NC(=O)Cc3ccccc3)c2=O)cc1 [Compound 120]
17 | 8800 nM | COc1ccc(Cn2ccc(C)c(NC(=O)[C@H](Cc3ccc(CC(=O)O)cc3)NC(=O)[C@@H](C)c3ccc4cc(OC)ccc4c3)c2=O)cc1 [Compound 62]
18 | 20000 nM | COCCOCCn1ccc(C)c(NC(=O)C(Cc2ccc(C(C)(C)C(=O)O)cc2)NC(=O)C(C)(C)c2ccc3ccccc3c2)c1=O (stereo not drawn) [Compound 144]

Row | Kd | SMILES
19 | 11000 nM | Cc1ccn(Cc2ccoc2)c(=O)c1NC(=O)C(Cc1ccc(C(C)(C)C(=O)O)cc1)NC(=O)C(C)(C)c1ccc2ccccc2c1 (stereo not drawn) [Compound 203]
20 | > 250000 nM | Cc1ccn(CC=CCC2CCCCC2)c(=O)c1NC(=O)[C@H](Cc1ccc(CC(=O)O)cc1)NC(=O)Cc1cccc2ccccc12 [Compound 12]
21 | 650 nM | COc1ccc(Cn2ccc(C)c(NC(=O)[C@H](Cc3ccc(NC(=O)C(=O)O)cc3)NC(=O)Cc3ccc(NC(=O)C(C)(C)C)cc3)c2=O)cc1 [Compound 104]
22 | 60 nM | COc1ccc(Cn2cc(Br)c(C)c(NC(=O)[C@H](Cc3ccc(-n4nnc(C(=O)O)c4C(=O)O)cc3)NC(=O)Cc3ccc4ccccc4c3)c2=O)cc1 [Compound 241, 3-[2'-(S)-(2""-Naphthylacetyl)amino-3'-[4"-(4'",5'"-dicarboxytriazolyl)]benzene]propanoylamino-1-(4-methoxybenzyl)-5-bromo-4-methyl-2-pyridone]
23 | 3200 nM | COC1CCC(Cn2ccc(C)c(NC(=O)C(Cc3ccc(C(C)(C)C(=O)O)cc3)NC(=O)Cc3ccc4ccccc4c3)c2=O)CC1 (stereo not drawn) [Compound 239]
24 | 5700 nM | Cc1ccn(Cc2ccc(O)cc2)c(=O)c1NC(=O)[C@H](Cc1ccc(C(C)(C)C(=O)O)cc1)NC(=O)C(C)(C)c1cccc2ccccc12 [Compound 134]
25 | 510 nM | COc1ccc(Cn2ccc(C)c(NC(=O)C(Cc3ccc(C(C)(C)C(=O)O)cc3)NC(=O)C(C)(C)c3ccc(N(C)C)cc3)c2=O)cc1 (stereo not drawn) [Compound 230]
26 | 6700 nM | Cc1ccn(Cc2ccoc2)c(=O)c1NC(=O)C(Cc1ccc(C(C)(C)C(=O)O)cc1)NC(=O)Cc1cccc2ccccc12 (stereo not drawn) [Compound 201]
27 | 170 nM | COc1ccc(Cn2cc(/C=C/C(N)=O)c(C)c(NC(=O)C(Cc3ccc(C(C)(C)C(=O)O)cc3)NC(=O)Cc3ccc4ccccc4c3)c2=O)cc1 (racemic) [Compound 221, 3-[2'-(R,S)-(2""-Naphthylacetyl)amino-3'-[4"-(1'"-carboxy-1'"-methyl)ethyl]benzene]propanoylamino-5-acrylamido-1-(4-methoxybenzyl)-4-methyl-2-pyridone]
28 | 5400 nM | COc1ccc(Cn2ccc(C)c(NC(=O)[C@H](Cc3ccc(N(O)C(=O)C(=O)O)cc3)NC(C)=O)c2=O)cc1 [Compound 95]
29 | 20000 nM | COc1ccc(Cn2ccc(C)c(NC(=O)[C@H](Cc3ccc(CC(=O)O)cc3)NC(=O)C3(c4ccccc4)CC3)c2=O)cc1 [Compound 77]
30 | 1100 nM | COc1ccc(Cn2ccc(C)c(NC(=O)[C@H](Cc3ccc(CC(=O)O)cc3)NC(=O)Cc3ccc(CC(C)(C)C)cc3)c2=O)cc1 [Compound 163]
31 | 1400 nM | COCCCCn1ccc(C)c(NC(=O)C(Cc2ccc(C(C)(C)C(=O)O)cc2)NC(=O)C(C)(C)c2ccc3ccccc3c2)c1=O (stereo not drawn) [Compound 236]
32 | 13000 nM | COCCOCn1ccc(C)c(NC(=O)C(Cc2ccc(C(C)(C)C(=O)O)cc2)NC(=O)Cc2ccc3ccccc3c2)c1=O (stereo not drawn) [Compound 189]
33 | 1700 nM | COc1ccc(Cn2ccc(C)c(NC(=O)[C@H](Cc3ccc(CC(=O)O)cc3)NC(=O)COc3ccc4ccccc4c3)c2=O)cc1 [Compound 166]
34 | 2500 nM | COc1ccc(Cn2ccc(C)c(NC(=O)[C@H](Cc3ccc(NC(=O)C(=O)O)cc3)NC(=O)Cc3c[nH]c4ccc(O)cc34)c2=O)cc1 [Compound 27]
35 | 890 nM | CCCCCCn1ccc(C)c(NC(=O)C(Cc2ccc(C(C)(C)C(=O)O)cc2)NC(=O)Cc2cccs2)c1=O (stereo not drawn) [Compound 206]
36 | 37200 nM | COc1ccccc1Cn1ccc(C)c(NC(=O)[C@H](Cc2ccc(CC(=O)O)cc2)NC(=O)Cc2cccc3ccccc23)c1=O [Compound 19]
